These results are taken from patent US7576177B2, “Hsp peptides and analogs for modulation of immune responses via antigen presenting cells” (Andromeda Biotech Ltd., priority 2002, dated 2009).

For experiment [1], the system named is BALB/c DO.11.10 bone marrow cells cultured for dendritic cells, cocultured with DO.11.10 T cells. Nature of the experiment: Education of mouse dendritic cells and stimulation of T-cells, cytokine content of supernatant. In kind it is cell-based. As for the experimental part:
Whelan et al. (J. Immunol 164, 6453-6460, 2000) addressed the problem in mice by an experiment in which mouse bone marrow cells were grown for 6 days in culture with GM-CSF to give immature dendritic cells. These dendritic cells were then incubated overnight with LPS (known to drive cells to DC1) or with a nematode antigen. The reason for the choice of nematode antigen was that injection of this antigen in vivo gives rise to a Th2 response in animals. After this so-called “education” of the dendritic cells, they were washed and subsequently incubated with naive T cells in the presence of antigenic stimulus. The experiment was possible because of the use of transgenic mice in which all the T cells respond to the same peptide (OVA323-339) which absolves the system from any question of bias of the T cell response at the level of the T cells. Any bias should be a consequence of the “education” of the dendritic cells. After three days of incubation the cytokine responses produced by the T cells, were measured by ELISA. […] In contrast, nematode antigen incubation gave rise to more IL-4 (Th2) than did controls while the LPS incubation inhibited the IL4 response. Therefore, the nematode antigen was said to drive cells to DC2. A similar method was used for testing the compounds of the present invention: • 1. Bone marrow cells were extracted from the leg bones of DO.11.10 mice transgenic for the TcR. All cells from these mice respond to the OVA peptide ([…]). • 2. Bone marrow cells were plated at 10^6 cells/ml in 100 mm diameter tissue culture petri dishes in Iscove's medium supplemented with 10% FCS, […], 1 mM sodium pyruvate, penicillin/streptomycin (according to manufacturer's recommendations), non-essential amino acids, 50 μM β-mercaptoethanol and 10 ng/ml mGM-CSF. • 3. After 4 days, the medium was carefully removed and replaced with fresh medium • 4. After 6 days, the non-adherent cells were harvested and used as immature dendritic cells • 5. The immature dendritic cells are plated at 1×10^6 cells/ml, 1 ml/well in 24 well plates in the above medium with various reagents added at various concentrations and incubated overnight. This is the stage in which the dendritic cells are “educated” • 6. The next day the cells were harvested and washed 3 times then resuspended at 5×10^4 cells/ml in 1 ml of the above medium but without the addition of GM-CSF to be cocultured with T cells • 7. […] 5×10^5 T cells were cultured with the dendritic cells from step 6 in the presence of various concentrations of the OVA peptide (0, 0.3 nM, 3 nM and 30 nM). • 9. After 3 days PMA (50 ng/ml) and ionomycin (500 ng/ml) were added to further stimulate the cells. • 10. The next day the cell supernatants were collected and assayed for cytokine content (Interferon γ, IL4, IL-10 and IL-12).
The compound was tested for stimulation of DO.11.10 bone marrow cells according to the assay described above (Production and education of mouse dendritic cells and stimulation of T-cells).
BALB/c DO.11.10 bone marrow cells were cultured for dendritic cells and then stimulated with LPS 1 μg/ml, LPS 10 μg/ml, hsp60 3 μg/ml, hsp60 10 μg/ml, p277 5 μg/ml and p277 50 μg/ml. The cells were then transferred to wells with T cells from fresh BALB/c DO.11.10 mice and stimulated with OVA peptide at different concentrations (0, 0.3 nM, 3 nM, 30 nM). Supernatant was collected after 48 hours for assay. 30 μl was taken for IFN, 40 μl for IL4 and IL-10 and 50 μl for IL-12 assays. The results are presented in the following tables, as amount of cytokine (pg/ml), and in FIG. 1.

In experiment [2] the test system is peripheral blood mononuclear cells cultured with GM-CSF and IL4 (dendritic cells). Put plainly: Peripheral blood derived dendritic cells: secreted cytokines (IP-10, IL-8) and cell surface antigens (CD83, CD86). The class given is cell-based, human. As for the experimental part:
The effect of the compositions of the present invention on peripheral blood derived dendritic cells, was tested according to a protocol described by Re, F. and Strominger, J. L. 2001. Toll-like receptor 2 (Tlr2) and Tlr4 differentially activate human dendritic cells. (J Biol Chem 276: 37692-9). According to this method immature dendritic cells derived from human peripheral blood are used. The outcome after incubating the cells with tested molecules is different if the stimulation is through the Toll 4 receptor or the Toll 2 receptor. According to the authors, Toll 2 signaling by stimulation with zymosan is associated with a Th2 kind of response (exemplified by IL-8) and Toll 4 signaling, such as obtained by LPS stimulation (exemplified by IP-10), with a Th1 type of response. The compositions of the present invention were tested using a similar assay system in order to check which stimulation type they induce. […] The increase in CD86 expression after exposure of APCs to Hsps or Hsp derived peptides is important since CD86 (B7.2) is an essential component of the immunological synapse formed between T cells and APC. This synapse consists of CD80 and CD86 on the side of the APC and CD28 and CD40 on the side of the T cell. T cell recognition of peptide on APC without the concurrent expression of CD86 gives rise to anergy instead of a T cell response. Therefore in order to produce a response all components must be present.
The assay was based on the protocol described by Re, F. and Strominger, J. L. 2001. Toll-like receptor 2 (Tlr2) and Tlr4 differentially activate human dendritic cells. (J. Biol Chem 276: 37692-9).
Peripheral blood mononuclear cells were prepared from leucocytes from blood lots obtained from the blood bank. The cells were plated at 10^8 cells/10 ml/Petri dish in RPMI medium including 10% FCS and allowed to adhere at 37° C. for 2 hours. At the end of this time, the non-adherent cells were washed off the plates with PBS and the adherent cells resuspended in fresh medium as before. The cells were then cultured for at least 8 days with the addition of GM-CSF and IL4 with the medium changed every 4 days. After this time, the cells were harvested and cultured overnight with LPS, zymosan or p277(Val^6-Va^11). The next day, the supernatant was collected for assay of the secreted cytokines (IP-10 and IL-8) and the cells were harvested for investigation of the cell surface antigens (CD83, CD86). CD83 is an antigen characteristic of dendritic cells. […] The second marker, CD86 (B7.2) is characteristic of mature dendritic cells. The marker CD86 is an essential component of the immunological synapse formed between T cells and APC. This synapse consists of CD80 and CD86 on the side of the APC and CD28 and CD40 on the side of the T cell. This is of course in addition to the specific recognition between the T cell receptor and peptide held in the MHC of the APC. T cell recognition of peptide on APC without the concurrent expression of CD86 gives rise to anergy instead of a T cell response.

A further experiment deals with mouse monocyte line J774. Nature of the experiment: Secretion of oxygen free radicals (oxidative burst) from mouse monocyte line. The class given is cell-based. The settings on record: J774, FIG. 5.
Setting [3] is: compared with non-exposed dendritic cells.
Setting [4] is: dendritic cells educated with 1 μg/ml, 0.3 nM Ova peptide.
Setting [5] is: dendritic cells educated with 10 μg/ml, 0.3 nM Ova peptide.

On to “lipopolysaccharide [LPS, reference compound]”, for which, in experiment [1] (setting [3]), the “IFN gamma produced by T cells after treatment of dendritic cells (in words)” value is “increased IFN gamma” and the “IL-4 produced by T cells after exposure of dendritic cells (in words)” value is given as “decreased IL4”. Moreover, in experiment [1] (setting [4]), the “IL-4 secretion of T cells” value is 11.07 pg/mL, the “IL-10 secretion of T cells” value was found to be 15.26 pg/mL and the “IL-12 secretion of T cells” value worked out at 90.00 pg/mL. Moreover, in experiment [1] (dendritic cells educated with 1 μg/ml, T cells stimulated with 0.3 nM Ova peptide), the “IFN secretion of T cells” value stood at 328.33 pg/mL. Also, in experiment [1] (setting [5]), the “IFN secretion of T cells” value was found to be 478.89 pg/mL, the “IL-4 secretion of T cells” value was 1.07 pg/mL, the “IL-10 secretion of T cells” value is 75.48 pg/mL and the “IL-12 secretion of T cells” value turned out to be 131.25 pg/mL. Further, the “maturation: percentage of cells stained with anti-CD86” value in experiment [2] (overnight stimulation, FIG. 3) is “increase of maturation”. In addition, in experiment [2] (stimulus 10 ng/ml, overnight), the IL-8 came out at 3131 pg/mL and the IP-10 was 2520 pg/mL.

As to “VALLRVIPA (Homo sapien) [p277(442-450, Val^6Val^11)]”, the “inhibition of the oxidative burst (secretion of oxygen free radicals)” value in the experiment with mouse monocyte line J774 is recorded as “effective”.
